Laboratory results reported in ChEMBL document CHEMBL3621136, “Design, synthesis, and biological and docking studies of novel epipodophyllotoxinchalcone hybrids as potential anticancer agents” (Medchemcomm, 2015).

How the values were obtained:
Type in all cases: functional, cell-based
[1] = test system: SK-N-SH; test: Cytotoxicity against human SK-N-SH cells assessed as growth inhibition after 48 hrs by SRB assay
[2] = test system: SW-620; test: Cytotoxicity against human SW620 cells assessed as growth inhibition after 48 hrs by SRB assay; details: SW-620, 48 h
[3] = test system: HCT-15; test: Cytotoxicity against human HCT15 cells assessed as growth inhibition after 48 hrs by SRB assay; details: HCT-15, 48 h
[4] = test system: HeLa; test: Cytotoxicity against human HeLa cells assessed as growth inhibition after 48 hrs by SRB assay
[5] = test system: DU-145; test: Cytotoxicity against human DU145 cells assessed as growth inhibition after 48 hrs by SRB assay; details: DU-145, 48 h
[6] = test system: COLO 205; test: Cytotoxicity against human COLO205 cells assessed as growth inhibition after 48 hrs by SRB assay; details: COLO 205, 48 h

| Structure (SMILES) | IC50 [1] | IC50 [2] | IC50 [3] | IC50 [4] | IC50 [5] | IC50 [6] |
| --- | --- | --- | --- | --- | --- | --- |
| COc1cc([C@@H]2c3cc4c(cc3[C@@H](n3cc(COc5ccc(C(C)=O)cc5)nn3)[C@H]3COC(=O)[C@H]23)OCO4)cc(OC)c1O | 11.6 µM | 11.6 µM | 12 µM | 18.9 µM | 16.6 µM | 14.8 µM |
| COc1cc([C@@H]2c3cc4c(cc3[C@@H](n3cc(COc5ccc(C(=O)/C=C/c6cccc(F)c6)cc5)nn3)[C@H]3COC(=O)[C@H]23)OCO4)cc(OC)c1OC | 12.4 µM | 5.21 µM | 15.6 µM | 14.2 µM | 13.3 µM | 7.32 µM |
| COc1ccc(/C=C/C(=O)c2ccc(OCc3cn([C@@H]4c5cc6c(cc5[C@@H](c5cc(OC)c(OC)c(OC)c5)[C@H]5C(=O)OC[C@@H]54)OCO6)nn3)cc2)cc1 | 7.32 µM | 11.2 µM | 6.12 µM | – | 10.2 µM | 12.3 µM |
| COc1cc([C@@H]2c3cc4c(cc3[C@@H](n3cc(COc5ccc(C(=O)/C=C/c6cccc(C)c6)cc5)nn3)[C@H]3COC(=O)[C@H]23)OCO4)cc(OC)c1O | 13.5 µM | 11.5 µM | 12.2 µM | 9.32 µM | 20.5 µM | 15.4 µM |
| COc1cc([C@@H]2c3cc4c(cc3[C@@H](n3cc(COc5ccc(C(=O)/C=C/c6ccc(F)cc6)cc5)nn3)[C@H]3COC(=O)[C@H]23)OCO4)cc(OC)c1O | 0.39 µM | 0.35 µM | 12.4 µM | 4.5 µM | 12 µM | 12.5 µM |
| COc1cc([C@@H]2c3cc4c(cc3[C@@H](n3cc(COc5ccc(C(=O)/C=C/c6cccc(C)c6)cc5)nn3)[C@H]3COC(=O)[C@H]23)OCO4)cc(OC)c1OC | 7.13 µM | 6.53 µM | – | 12.2 µM | 9.36 µM | 8.23 µM |
| COc1cc([C@@H]2c3cc4c(cc3[C@@H](n3cc(COc5ccc(/C=C/C(C)=O)cc5)nn3)[C@H]3COC(=O)[C@H]23)OCO4)cc(OC)c1O | 10.3 µM | 7.5 µM | 6.82 µM | 13.1 µM | 12 µM | – |
| COc1cc([C@@H]2c3cc4c(cc3[C@@H](n3cc(COc5ccc(C(C)=O)cc5)nn3)[C@H]3COC(=O)[C@H]23)OCO4)cc(OC)c1OC | 15.6 µM | 14.6 µM | 13.5 µM | 18.5 µM | 13.6 µM | 18.8 µM |
| COc1cc([C@@H]2c3cc4c(cc3[C@@H](n3cc(COc5ccc(C(=O)/C=C/c6ccccc6)cc5)nn3)[C@H]3COC(=O)[C@H]23)OCO4)cc(OC)c1OC | 4.13 µM | 2.02 µM | 12.8 µM | 5.34 µM | 30.2 µM | 9.12 µM |
| COc1cc([C@@H]2c3cc4c(cc3[C@@H](n3cc(COc5ccc(/C=C/C(=O)c6ccccc6)cc5)nn3)[C@H]3COC(=O)[C@H]23)OCO4)cc(OC)c1OC | 25.6 µM | 9.2 µM | 15.3 µM | 19.1 µM | 30 µM | 29.3 µM |
| COc1cc([C@@H]2c3cc4c(cc3[C@@H](n3cc(COc5ccc(/C=C/C(=O)c6ccccc6)cc5)nn3)[C@H]3COC(=O)[C@H]23)OCO4)cc(OC)c1O | 8.3 µM | 4.4 µM | 6.75 µM | 9.18 µM | 5.45 µM | – |
| COc1cc([C@@H]2c3cc4c(cc3[C@@H](n3cc(COc5ccc(C(=O)/C=C/c6ccccc6F)cc5)nn3)[C@H]3COC(=O)[C@H]23)OCO4)cc(OC)c1O | 7.4 µM | 12.6 µM | 15.2 µM | – | 9.34 µM | 12.3 µM |
| COc1cc(/C=C/C(C)=O)ccc1OCc1cn([C@@H]2c3cc4c(cc3[C@@H](c3cc(OC)c(OC)c(OC)c3)[C@H]3C(=O)OC[C@@H]32)OCO4)nn1 | 10 µM | 3.41 µM | 10.4 µM | 3.4 µM | – | 8.98 µM |
| COc1cc([C@@H]2c3cc4c(cc3[C@@H](n3cc(COc5ccc(/C=C/C(C)=O)cc5)nn3)[C@H]3COC(=O)[C@H]23)OCO4)cc(OC)c1OC | 14.4 µM | 10.2 µM | 16.3 µM | – | 11.3 µM | 7.6 µM |
| COc1cc([C@@H]2c3cc4c(cc3[C@@H](n3cc(COc5ccc(C(=O)/C=C/c6ccccc6F)cc5)nn3)[C@H]3COC(=O)[C@H]23)OCO4)cc(OC)c1OC | 6.73 µM | 8.12 µM | 12.9 µM | 17.2 µM | 20.2 µM | – |
| COc1ccc(/C=C/C(=O)c2ccc(OCc3cn([C@@H]4c5cc6c(cc5[C@@H](c5cc(OC)c(O)c(OC)c5)[C@H]5C(=O)OC[C@@H]54)OCO6)nn3)cc2)cc1 | 15.6 µM | 10.3 µM | 7.45 µM | 6.8 µM | 12.5 µM | – |
| COc1cc(/C=C/C(C)=O)ccc1OCc1cn([C@@H]2c3cc4c(cc3[C@@H](c3cc(OC)c(O)c(OC)c3)[C@H]3C(=O)OC[C@@H]32)OCO4)nn1 | 5.45 µM | 5.66 µM | 12.4 µM | 5 µM | 6.5 µM | 18.2 µM |
| COc1cc([C@@H]2c3cc4c(cc3[C@@H](n3cc(COc5ccc(C(=O)/C=C/c6ccccc6)cc5)nn3)[C@H]3COC(=O)[C@H]23)OCO4)cc(OC)c1O | 0.66 µM | 0.64 µM | 9.5 µM | 5.9 µM | 12 µM | 12.3 µM |
| COc1cc([C@@H]2c3cc4c(cc3[C@@H](O[C@@H]3O[C@@H]5CO[C@@H](C)O[C@H]5[C@H](O)[C@H]3O)[C@H]3COC(=O)[C@H]23)OCO4)cc(OC)c1O [ETOPOSIDE] | 9.03 µM | 13.2 µM | 12.2 µM | 10.4 µM | 16.4 µM | 14.2 µM |
| COc1cc([C@@H]2c3cc4c(cc3[C@@H](n3cc(COc5ccc(C(=O)/C=C/c6ccc(F)cc6)cc5)nn3)[C@H]3COC(=O)[C@H]23)OCO4)cc(OC)c1OC | 3.4 µM | 2.4 µM | 12 µM | – | 6.5 µM | 13.2 µM |
| COc1cc([C@@H]2c3cc4c(cc3[C@@H](n3cc(COc5ccc(C(=O)/C=C/c6cccc(F)c6)cc5)nn3)[C@H]3COC(=O)[C@H]23)OCO4)cc(OC)c1O | 4.5 µM | 5.36 µM | – | 6.4 µM | 7.4 µM | 5.15 µM |
